Some test systems named below: ACHN; COLO 205; EKVX; HCT-15; KM12; M14; Malme-3M; OVCAR-4; OVCAR-8; PC-3; SF-268; SF-295; SK-MEL-28; SK-MEL-5; SK-OV-3; SW-620; HL-60; K562; NCI-H522; SNB-75.
Holding throughout (experiment): NCI-60 cell line screen, 48 h

The values below come from ChEMBL document CHEMBL1201862, “PubChem BioAssay data set” (2004).

Structures are written as SMILES.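 A five-concentration, 48-hour dose response in 96-well plates underlies each endpoint, interpolated linearly between surrounding concentrations. GI50 = concentration required for 50% inhibition of growth.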 Activity calls are given as the source filed them. No stated cut-off is given here; in the data, active = GI50 up to about 1.1 µM and inactive = higher. Where only a bound is given, the exact number is not on record here.

As for `CC(C)(NO)/C(=N\O)c1ccco1`, the GI50 was > 100 µM (inactive) in the assay on ACHN; > 100 µM (inactive) in the assay on COLO 205; > 100 µM (inactive) with EKVX; > 100 µM in the assay with HCT-15; > 100 µM (inactive) with KM12; > 100 µM (inactive) in the assay on M14. Besides, the GI50 in the assay on Malme-3M, in the assay on OVCAR-4, with OVCAR-8, with PC-3, in the assay on SF-268 and in the assay on SF-295 was > 100 µM (inactive) in each case. Besides, the GI50 in the assay with SK-MEL-28, with SK-MEL-5, in the assay on SK-OV-3 and in the assay on SW-620 was > 100 µM (inactive) throughout.
Regarding `O=c1cc(NNc2ccc3ccccc3c2)[nH]c(=S)[nH]1`, the GI50 was 31.6 µM (inactive) with ACHN; 23.2 µM (inactive) in the assay with COLO 205; > 100 µM (inactive) with EKVX; 14.5 µM with HCT-15; 24.7 µM (inactive) in the assay on HL-60; 18.6 µM (inactive) in the assay on K562. Besides, the GI50 is 17.7 µM (inactive) in the assay on KM12; 33.2 µM (inactive) in the assay on M14; 63.7 µM (inactive) in the assay with Malme-3M; 68.7 µM (inactive) in the assay on OVCAR-4; 44.9 µM (inactive) in the assay on OVCAR-8; 19.8 µM (inactive) in the assay with PC-3. Also, the GI50 in the assay on SF-268 was 21.1 µM (inactive); in the assay with SF-295 it was 61.9 µM (inactive); with SK-MEL-28 it was 49.9 µM (inactive); with SK-MEL-5 it was > 100 µM (inactive); with SW-620, 18.2 µM (inactive).
Regarding `COc1ccc(C2C3=C(Nc4ncnn42)c2ccccc2OC3c2ccccc2)cc1` (stereo not given), the GI50 with ACHN is 18.5 µM (inactive); with COLO 205, 23.7 µM (inactive); in the assay on HCT-15, 17.4 µM; with HL-60, 2.27 µM (inactive); with K562, 11 µM (inactive); in the assay on KM12 it was 14.6 µM (inactive). Also, the GI50 in the assay on M14 is 61.8 µM (inactive); in the assay with OVCAR-8, 80.2 µM (inactive); in the assay on PC-3, 27.4 µM (inactive); with SF-268 it was 42.6 µM (inactive); in the assay with SF-295, 27.8 µM (inactive); in the assay on SK-MEL-5, 14.9 µM (inactive). Moreover, the GI50 with SK-OV-3 is 37.5 µM (inactive); with SW-620, 41.7 µM (inactive).
Take `CCC/C=C1\CCC(CN(C)C)C1=O` (stereo not given): the GI50 in the assay on ACHN is 5.62 µM (inactive); with COLO 205 it was 3.1 µM (inactive); in the assay on EKVX, 6.12 µM (inactive); in the assay on HCT-15, 2.51 µM; with HL-60, 9.25 µM (inactive); in the assay with K562, 2.15 µM (inactive). The GI50 in the assay on KM12 is 4.67 µM (inactive); with M14 it was 6.52 µM (inactive); in the assay with Malme-3M it was 1.77 µM (inactive); in the assay on NCI-H522, 1.93 µM (inactive); with OVCAR-4, 18.8 µM (inactive); in the assay on OVCAR-8, 10.2 µM (inactive). Also, the GI50 in the assay with SF-268 was 14.5 µM (inactive); in the assay on SF-295 it was 24.1 µM (inactive); with SK-MEL-28 it was 6.52 µM (inactive); in the assay on SK-MEL-5, 16.7 µM (inactive); in the assay with SK-OV-3 it was 36.3 µM (inactive); in the assay on SNB-75, 18.1 µM (inactive). Further, in the assay with SW-620, the GI50 was 4.6 µM (inactive).
For the compound `CCCCCCCCCC(=O)OCC1OC(n2cc(F)c(=O)[nH]c2=O)C(N)C(OC(=O)CCCCCCCCC)C1O` (stereo not given), the GI50 in the assay on ACHN was 40.2 µM (inactive); with COLO 205, 17.5 µM (inactive); in the assay on EKVX, 18.2 µM (inactive); with HCT-15 it was 18.2 µM; in the assay with HL-60 it was 23.3 µM (inactive); with K562, 16.7 µM (inactive). Moreover, the GI50 was 19.1 µM (inactive) in the assay with KM12; 19.2 µM (inactive) with M14; 16.9 µM (inactive) in the assay on Malme-3M; 14.6 µM (inactive) with NCI-H522; 15.8 µM (inactive) in the assay on OVCAR-4; 18.2 µM (inactive) in the assay with OVCAR-8. Moreover, the GI50 in the assay with SF-268 is 20.2 µM (inactive); in the assay on SF-295 it was 17.8 µM (inactive); with SK-MEL-28 it was 16.7 µM (inactive); in the assay with SK-MEL-5, 22.6 µM (inactive); with SK-OV-3 it was 60 µM (inactive); with SNB-75 it was 16.3 µM (inactive). Also, the GI50 in the assay with SW-620 is 17.4 µM (inactive).
